Data reported in US20110257202A1, “Therapeutic Compositions and Methods for Treating Chronic Kidney Disease Associated with a Metabolic Imbalance” (priority 2008, published 2011).
Entries after “also recorded” stand apart in the source; their conditions may differ.

Columns and labels:
[1] = system: wild type diabetic (DM) mice; assay: Blood pressure in wild type diabetic mice; type: in vivo
Source text: (§1) FIG. 1 represents a graph showing that ACE inhibitors are effective in lowering blood pressure in wild type diabetic (DM) mice. Shown in FIG. 1 is the effect of no treatment (No TX), the ACE inhibitor enalapril (DM enalapril), and the ARB telmisartan (DM telmisartan).
as §1, with “is” for “represents”, “telmisartan). […] These are considered early changes of diabetic nephropathy.” for “telmisartan).”

[2] = system: wild type diabetic (DM) mice; assay: Renal histology (early diabetic nephropathy) in wild type diabetic mice; type: in vivo
Source text: These are considered early changes of diabetic nephropathy.
(§2) FIG. 4 ACE inhibitors and ARBs are not effective at preventing diabetic nephropathy in eNOSKO mice. DM caused mesangial expansion in DM eNOSKO mice (B), which was not prevented by enalapril (C) or telmisartan (D). […] Bar: 20 μm. […] Bar: 20 μm. White bar=no treatment; Black bar=enalapril; Gray bar=telmisartan. Data are shown as means and
as §1, with “is” for “represents”, “telmisartan). […] These are considered early changes of diabetic nephropathy.” for “telmisartan).”
(§3) DM caused mesangial expansion in DM eNOSKO mice (b), which was not prevented by enalapril (c) or telmisartan (d). […] Bar: 20 μm. […] Bar: 20 μm. White bar=no treatment; Black bar=enalapril; Gray bar=telmisartan. FIG. 5 pertains to a table that provides results of the effect of ACE inhibitors and ARBs on blood pressure and renal function in diabetic nephropathy in eNOSKO mice. ACE inhibitors and ARBs are effective at lowering blood pressure and proteinuria in wild type diabetic mice, and are also effective at lowering blood pressure in nondiabetic eNOSKO mice.

DM eNOSKO mice [3] = assay: Blood pressure in diabetic eNOSKO mice; type: in vivo; conditions: diabetic mice lacking endothelial nitric oxide synthesis; 50 mg/kg
DM eNOSKO mice [4] = assay: Renal histology (diabetic nephropathy) in diabetic eNOSKO mice; type: in vivo
Source text: It has been shown that when diabetes is induced in these mice with streptozotocin, that they develop all aspects of human diabetic nephropathy, including clinical manifestations (nephrotic proteinuria, progressive renal failure and early mortality), histologic manifestations (including mesangial expansion, nodules and mesangiolysis, podocyte abnormalities, vascular lesions, tubulointerstitial disease) and molecular changes (increases in TGF-β and VEGF expression). To the inventors' knowledge this is also the first diabetic model that develops both retinopathy and nephropathy spontaneously.
as §2
FIG. 7 is an immunohistograph of a kidney of a Diabetic eNOSKO mouse showing an increase in aldosterone in its glomeruli. Diabetes was induced with streptozotocin in eNOSKO mice, which were treated with enalapril (10 mg/kg BW/day; black bar) or telmisartan (2 mg/kg BW/day; gray bar) for 4 weeks (from at 6 weeks to 10 weeks)
as §3

mitochondria = assay: Mitochondrial loss in response to oxidative stress
eNOSKO mice = conditions: 4 weeks, 50 mg/l drinking water
Experimental: Since nitrite is a metabolite of NO, and can be converted to NO in the body (reviewed in ^28), sodium nitrite was tested to see if it could prevent hypertension in eNOSKO mice.

[5] = system: human aortic endothelial cells; assay: Oxidative stress (DCF-DA fluorescence) in endothelial cells; type: cell-based; conditions: 12 mg/dl
Experimental: The green fluorescence is a measure of a marker for oxidative stress using the peroxide-sensitive probe 2′7′-dichlorofluorescein diacetate (DCF-DA) dye (FIG. 9A). On the right is the quantitation of oxidative stress, with control in open bar, uric acid (12 mg/dl) in the black bar, and uric acid with apocynin (an inhibitor of NADPH oxidase-induced oxidants) in the right bar (FIG. 9B).

[6] = system: human aortic endothelial cells; assay: ATP levels in endothelial cells; type: cell-based; conditions: 3.5, 7 and 12 mg/dl, 48 hours
Experimental: Uric acid (3.5 mg/dl, 7 mg/dl and 12 mg/dl) was included in the media for 48 hours.
(§4) One of the key mechanisms by which uric acid acts to cause endothelial dysfunction is to cause a loss of mitochondria and mitochondria DNA, resulting in depletion of ATP stores necessary for endothelial function (FIGS. 11 and 12).

[7] = system: human aortic endothelial cells; assay: Mitochondria number (Mitotracker Orange) in endothelial cells; type: cell-based; conditions: 12 mg/dl, 48 hours
Experimental: Mitochondria numbers were measured with Mitotracker Orange in control cells (FIG. 12A) and UA treated cells (FIG. 12B). Shown in FIG. 12C is the quantified effect of uric acid 12 mg/dl on mitochondria density at 48 hours.
as §4

[8] = system: human aortic endothelial cells; assay: Cell viability (trypan blue exclusion); type: cell-based; conditions: 48 hours
[9] = system: porcine aortic endothelial cells; conditions: various doses, from Khosla et al; cited from earlier work
DM eNOSKO mice [10] = conditions: diabetic eNOS-deficient mice; reference 21; cited from earlier work

Row | Compound | blood pressure (BP) [1] | glomerular type IV collagen deposition [2] | mesangial expansion [2] | advanced lesions (mesangiolysis with glomerular capillary microaneurysms, augmented deposition of extracellular matrix) (DM eNOSKO mice [4]) | mesangial expansion (DM eNOSKO mice [4]) | other results
1 | CCOC(=O)[C@H](CCc1ccccc1)N[C@@H](C)C(=O)N1CCC[C@H]1C(=O)O [enalapril] | can significantly lower blood pressure | improve | improve mesangial expansion; also recorded: beneficial effect | Neither enalapril (g) nor telmisartan (h) treatment prevented these advanced lesions | not prevented | BP (DM eNOSKO mice [3]): did not lower BP
2 | O=C(NCCO[N+](=O)[O-])c1cccnc1 [nicorandil] |  |  |  |  |  | mitochondrial loss (mitochondria): can prevent mitochondrial loss
3 | O=NO [sodium nitrite] |  |  |  |  |  | blood pressure (eNOSKO mice): reduced blood pressure in eNOSKO mice similar to that observed in wild type mice
4 | CCCc1nc2c(C)cc(-c3nc4ccccc4n3C)cc2n1Cc1ccc(-c2ccccc2C(=O)O)cc1 [telmisartan] | can significantly lower blood pressure | improve | improve mesangial expansion; also recorded: beneficial effect | Neither enalapril (g) nor telmisartan (h) treatment prevented these advanced lesions | not prevented | 
5 | O=c1[nH]c(=O)c2[nH]c(=O)[nH]c2[nH]1 [uric acid] |  |  |  |  |  | oxidative stress (DCF-DA) [5]: causes oxidative stress; ATP levels [6]: reduces ATP levels; mitochondria number [7]: reduces mitochondria number; cell viability ([8]; 12 mg/dl): No effects on cell viability; cell viability (trypan blue exclusion) ([8]; 3.5, 7 and 12 mg/dl): No alterations in cell viability; endothelial NO levels (fluorescence of DAF) [9]: causes a reduction in endothelial NO levels
6 | insulin |  |  |  |  |  | renal disease (DM eNOSKO mice [10]): can be prevented
